Measurements from patent US20080119517A1, “COMPOSITIONS AND METHODS FOR PROTECTING AGAINST MITOCHONDRIA COMPONENT-MEDIATED PATHOLOGY” (Cornell Research Foundation, Inc., priority 2003, published 2008).

Legend:
heart during ischemia = conditions: cited from earlier work
liver mitochondria = conditions: cited from earlier work
phospholipase A2 = format: biochemical
[1] = tested on: primary cerebrocortical neurons; test: Oxygen-glucose deprivation (OGD) of cultured primary cerebrocortical neurons; format: cell-based, mouse; conditions: for OGD-mediated neuronal death (LDH release): promethazine 0.1 μM (p=0.05) and 0.5 μM (p<0.001)
Experimental: Heterocyclic-mediated protection was next examined in two models of stroke: (i) oxygen-glucose deprivation (OGD) of cultured primary cerebrocortical neurons, and; (ii) in the mouse, middle cerebral artery occlusion (MCAO)/reperfusion.
Neurotoxicity studies were conducted as previously described. […] Cerebral cortex of mouse embryos at day 15 (E15) were freed from meninges and separated from olfactory bulb and hippocampus.
OGD of primary cerebrocortical neurons is a widely used cell culture model of stroke-related pathology. […] Caspase-3 activation plays a key role in hypoxia/ischemia-mediated injury. To gam insight into the mechanism of promethazine-mediated neuroprotection, it was evaluated whether this compound could inhibit OGD-mediated caspase-3 activation.

[2] = tested on: mouse middle cerebral artery occlusion (MCAO)/reperfusion; test: Middle cerebral artery occlusion (MCAO)/reperfusion, promethazine study; format: in vivo
Experimental: Middle cerebral artery occlusion/reperfusion studies were conducted as previously described. […] All animal experiments were conducted in accordance with National Institutes of Health and institutional guidelines. Male C57/B6 (Charles River Laboratories) mice weighing 18-29 g were housed in standard temperature (22±1° C.) and light-controlled (light on 07:00-21:00) environment with ad libitum access to food and water. Weight of animals undergoing stroke were restricted to less than 22 g. Animals undergoing stroke were randomized to two groups: untreated OP injection with 0.9% saline) and treated (IP injection with promethazine solution). Weight of animals undergoing sham operations was liberalized to 18-29 g. Surgery and Occlusion: Immediately before surgery, each mouse was anesthetized with 2% isoflurane (70% N2O/30% O2). During surgery, isoflurane was lowered to 1%. A midline incision was made in the neck and the right common carotid artery was dissected. The right MCA was occluded with a 7-0 nylon filament after permanent ligation of the external carotid artery and temporary ligation of the common carotid artery. […] Right MCA occlusion was defined as greater than or equal to a 90% drop of peak velocity measured by the laser Doppler flowmetry drop. […] The occluding filament was removed after 120 minutes. Sham operations consisted of the same duration and concentration of anesthesia, midline incision, doppler probe insertion over right temporal bone, and dissection of common carotid artery but no manipulation of the common carotid artery or external carotid artery. The surgeon was bided to treatment group. All mice were sacrificed at 24 hrs post perfusion. Experiments were in accordance with protocols approved by the Harvard Medical School Animal Care Committee. Drug Treatment: Both treated and control groups received two IP injections: the first one delivered 1 hr prior to ischemia and the second delivered 12 hrs later. Each i.p. dose was 10 mg/kg (in 0.5 ml) of promethazine dissolved in 0.9% NaCl or an equal volume of buffer alone. […] Determination of Infarct Volume: After 24 hrs of reperfusion, the mice were sacrificed. The brains were quickly removed and chilled for 2 minutes. The cerebellum was removed, Coronal sections (2 mm thick; n=6) were cut in a craniotome. […] After staining, each slice was scanned by an HP scanjet 4200 C, The unstained areas in each hemisphere were quantified and the ischemic area per slice=left (normal side)-right (ischemic side). […] The infarct volume was calculated by summing up the infracted areas in the 6 slices and calculating the volume for a cylinder (area×height). […] The examiner was blinded to treatment group.

[3] = tested on: 3-nitropropionic acid induced striatal lesions in Lewis rats; test: 3-nitropropionic acid striatal lesion model (Huntington's Disease); format: in vivo, rat
Experimental: Male Lewis 344 rats were administered 3-nitroproprionic acid by subcutaneous Alzet pumps. 3-Nitropropionic acid is a mitochondrial toxin which causes selective degeneration in the basal ganglia, mice, rats and primates. The lesions that it produces highly mimic the neuropathologic features associated with Huntington's Disease. The male Lewis rats weighed from about 340 to abut 370 grams and were obtained from Charles River Laboratories. At twelve weeks of age, the subcutaneous pumps were implanted. The concentration for each individual rat was calculated so that the animals received a dose of 38 mg/kg/d. Control animals were implanted with empty osmotic pumps. The 3-nitropropionic acid was administered for one week. Animals were treated with either phosphate buffered saline (PBS) promethazine in PBS at doses of 5 to 40 mg/kg/d. One week after the administration of the compound the rats were deeply anesthetized and transcardially perfused with 4% paraformaldehyde in PBS. Subsequently, 50 μm sections were obtained and stained for nissel substance. The lesion volumes were then calculated using stereologic procedures.

[4] = tested on: MPTP-induced dopamine depletion and dopaminergic neuron loss; test: MPTP experimental animal model for Parkinson's Disease; format: in vivo
Source text: 1-Methyl-4-phenyl-1,2,3,6-tetrahydropyridine (MPTP) has been employed as an experimental animal model for Parkinson's Disease. As evidenced by FIG. 9, promethazine appeared to have no effect on striatal dopamine levels at base line.

humans = conditions: human, in vivo; cited from earlier work

CCN(CC)CCCC(C)Nc1c2ccc(Cl)cc2nc2ccc(OC)cc12 (stereo not shown) [Quinacrine]
protection in the heart during ischemia (heart during ischemia): protective agent

NCCc1c[nH]cn1 [Histamine]
swelling of liver mitochondria (liver mitochondria): cause swelling

CC(CN1c2ccccc2Sc2ccccc21)N(C)C (stereo not shown) [Promethazine]
PLA2 inhibition (phospholipase A2): does not appear to be a strong | OGD-mediated caspase-3 activation [1]: reduced | OGD-mediated neuronal death (LDH release) [1]: inhibited | OGD-mediated neuronal death (LDH release) ([1]; listed as promethazine): protection | reduction in lesion size compared with saline-treated mice ([2]; 10 mg/kg i.p. 1 hr prior to ischemia and 12 hrs later, 24 hrs reperfusion, n=13, p<0.005): 53% | reduction of maximal infarct size ([2]; 10 mg/kg i.p. twice): 65% | reduction of variability of the injury ([2]; 10 mg/kg i.p. twice): 65% | neurologic score ([2]; 30 minute post-ischemia evaluation): not different | neurologic impairment score ([2]; 24 hours following MCAO, p<0.05): significantly improved | protection from MCA occlusion/reperfusion ([2]; total stroke volume P<0.005): protects | striatal lesion volume ([3]; 3-nitropropionic acid 38 mg/kg/d for one week, promethazine 5 to 40 mg/kg/d, untreated ~14 mm^3): ~4 mm^3 | 3-nitropropionic induced lesions ([3]; increasing dosages): blocked | MPTP-induced reduction in striatal dopamine levels ([4]; 20 mg/kg): significantly attenuated | depletion of striatal dopamine levels, dose response ([4]; 2.5, 5, and 40 mg/kg examined, optimal effects at 10 and 40 mg/kg): dose-dependent neuroprotection | loss of dopaminergic neurons in the substantia nigra pars compacta ([4]; 50% cell loss following MPTP): significantly attenuated | striatal dopamine levels at base line ([4]; without MPTP): no effect | tolerability in humans (humans): well-tolerated drug with few adverse side effects
